According to BindingDB's records for doi:10.1021/acs.jmedchem.2c01800 (China Pharmaceutical University, 2023):

Experiments:
[1] = molecular target: T1, Signal transducer and activator of transcription 3 (Homo sapiens, UniProt P40763); experiment: Inhibition of IL-23 induced STAT3 phosphorylation in human KIT225 cells by AlphaLISA assay
[2] = molecular target: T1, Signal transducer and activator of transcription 3; experiment: Inhibition of IL-6 induced STAT3 phosphorylation in human TF-1 cells by AlphaLISA assay
[3] = molecular target: T1, Signal transducer and activator of transcription 3; experiment: Inhibition of IL-23 induced STAT3 phosphorylation in human Jurkat cells incubated for 30 mins by microplate reader analysis

T1 sequence (P40763 whole entry): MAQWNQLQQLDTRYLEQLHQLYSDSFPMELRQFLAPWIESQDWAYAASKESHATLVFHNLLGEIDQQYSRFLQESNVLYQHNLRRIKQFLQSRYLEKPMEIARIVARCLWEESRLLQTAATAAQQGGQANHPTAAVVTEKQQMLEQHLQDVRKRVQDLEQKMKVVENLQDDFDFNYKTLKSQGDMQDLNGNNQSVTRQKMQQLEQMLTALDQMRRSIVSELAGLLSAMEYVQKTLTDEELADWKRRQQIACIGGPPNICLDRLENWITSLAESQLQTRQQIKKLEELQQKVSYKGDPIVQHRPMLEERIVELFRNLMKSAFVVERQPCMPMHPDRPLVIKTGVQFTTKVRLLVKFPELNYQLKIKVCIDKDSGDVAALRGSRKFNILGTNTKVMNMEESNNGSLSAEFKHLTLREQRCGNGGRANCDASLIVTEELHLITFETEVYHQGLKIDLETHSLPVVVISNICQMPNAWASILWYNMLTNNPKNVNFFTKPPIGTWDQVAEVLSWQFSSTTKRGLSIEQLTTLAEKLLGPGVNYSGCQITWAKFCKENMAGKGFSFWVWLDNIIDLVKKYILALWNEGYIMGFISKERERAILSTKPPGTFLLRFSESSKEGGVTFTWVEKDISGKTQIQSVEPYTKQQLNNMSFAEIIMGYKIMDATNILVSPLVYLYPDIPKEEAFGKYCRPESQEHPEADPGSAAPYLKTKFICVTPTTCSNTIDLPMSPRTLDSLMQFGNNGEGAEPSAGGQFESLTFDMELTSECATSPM

Structure (SMILES) | IC50 [1] [nM] | IC50 [2] [nM] | IC50 [3] [nM]
CNc1cc(Nc2ccccc2OC)nc2c(C(=O)N[C@@H]3CCN(C)C3=O)cnn12 | 9 |  | 
CCOc1cccc(Nc2cc(NC)n3ncc(C(=O)N[C@@H]4CCN(C)C4=O)c3n2)n1 | 29 |  | 
CNC(=O)c1nnc(NC(=O)N2CCC2)cc1Nc1cccc(-c2ncn(C)n2)c1OC [US11053219, Example 28] | 28 | 5900 | 
CNc1cc(Nc2cccn(-c3ccccn3)c2=O)nc2c(C(=O)N[C@@H]3CCN(C)C3=O)cnn12 | 65 |  | 

Other lines, results leading:

IC50 [1] [nM] | IC50 [2] [nM] | IC50 [3] [nM] | Structure (SMILES)
5.9 |  |  | [2H]C([2H])([2H])NC(=O)c1nnc(Nc2ccc(N3CC(O)C3)cn2)cc1Nc1cccc(-c2ncn(C)n2)c1OC
 |  | 2.4 | [2H]C([2H])([2H])NC(=O)c1nnc(NC(=O)C2CC2)cc1Nc1cccc(-c2ncc(-c3cccnc3C(F)(F)F)cn2)c1OC
